From patent US7632531B2, “Alkyldienamides exhibiting taste and sensory effect in flavor compositions” (International Flavors & Fragnances Inc., priority 2003, dated 2009) come the findings set out here.

Common to all, as to type: in vivo
The nature of assay [1]: Flavor / organoleptic characteristics of the alkyldienamides. Particulars: for Primary characteristic / Secondary characteristic: flavor characteristics; for Taste and flavor characteristics: organoleptic properties.
The nature of assay [2]: Toothpaste tasting in normal tooth brushing versus control paste. Particulars: 200 ppm compound added to mint control paste. The protocol: The following separate groups of ingredients were prepared:
2.0 parts by weight of sodium n-Lauroyl sarcosinate (foaming agent)
1.0 parts by weight of the flavor material which is a blend of peppermint oil, spearmint oil, anethole, and menthol.
• (1) The ingredients in Group “A” were stirred and heated in a steam jacketed kettle to 160° F. • (2) Stirring was continued for an additional 3 to 5 minutes to form a homogeneous gel. • (3) The powders of Group “B” were added to the gel, while mixing until a homogeneous paste is formed. • (4) With stirring, the flavor of Group “D” was added, followed by addition immediately thereafter of the foaming agent of Group “C”. • (5) The resultant slurry was then blended for one hour.
The completed paste was then transferred to a three-roller mill, homogenized and finally tubed. […] To this control paste 200 ppm of N-Isobutyl E2,Z6-dodecadienamide is added.

Assay [3] can be described thus: Non-alcoholic lemon lime beverage tasting versus control beverage. Particulars: 0.5 PPM compound plus 35 PPM lemon oil/lime oil flavor; versus control beverage with flavor only. The procedure:
A non-alcoholic beverage formulation was prepared according to the following formulation: […]
The flavor applied to the beverages consisted of a blend of single fold lemon oil and distilled lime oil. The control beverage contained 35 PPM of this flavor. […] Another beverage was prepared containing 35 PPM of the same flavor and 0.5 PPM of N-Ethyl E2,Z6-nonadienamide.

Assay [4] in a line: Hard candy (cinnamon bark oil) tasting versus control candy. Particulars: 100 PPM compound in cinnamon bark oil candy. The protocol: The above ingredients were added to a stainless steel pot. With constant mixing the ingredients were brought to 295° F. The pot was removed from the heat and 0.5 grams of cinnamon bark oil was blended in. This liquid candy was then deposited into molds where it was left to cool. This recipe yielded 200 grams of finished candy. […] Another candy sample was prepared using the above recipe with the addition of 100 PPM of N-Methyl E2,Z6-nonadienamide.

Assay [5] is described as follows: Alcoholic peach beverage tasting versus control beverage. Particulars: 20 PPM compound plus 60 PPM peach flavor in 30° Proof alcoholic base. The protocol: Flavored beverages were prepared using the following 30° Proof alcoholic base:
The peach flavor applied to the beverages consisted of a blend of Gamma Decalactone, Benzaldehyde, Cis-3-hexenol, Butyric acid, 2-Methyl butyric acid, Iso butyl acetate, Linalool, and para-Mentha-8-thiol-3-one. The control beverage contained 60 PPM of the above flavor blend. […] Another beverage was prepared containing 60 PPM of the same flavor and 20 PPM of N-(3,4-methylenedioxy)benzyl E2,Z6-nonadienamide.

With `CCCCC/C=C\CC/C=C/C(=O)NCC(C)C` [N-isobutyl E2,Z6-dodecadienamide], in assay [1], the Primary characteristic result is “Numbing” and the Secondary characteristic result is reported as “Tingle”. Further, in assay [2], the “Additional sensation of toothpaste (tingle, numbing)” value is “tingle on the tongue and a slight numbing on the lips”; the “Flavor / cooling of toothpaste” value was “moderate cooling without the bitterness of the control sample”.

Turning to `CCCCC/C=C\CC/C=C/C(=O)NCC` [N-ethyl E2,Z6-dodecadienamide], in assay [1], the Primary characteristic result is “MSG like” and the Secondary characteristic result was “Burning”.

For `CCCCC/C=C\CC/C=C/C(=O)NC(C)C` [N-isopropyl E2,Z6-dodecadienamide], in assay [1], the Secondary characteristic entry is “Tingle”; the “Taste and flavor characteristics” value is “Oily flavor, slight tingle”.

On to `CC/C=C\CC/C=C/C(=O)NCC(C)CC` (stereo not drawn) [N-(2-methylbutyl) E2,Z6-nonadienamide], for which, in assay [1], the Primary characteristic entry is reported as “Bitter”; the Secondary characteristic entry was “Tingle”; the “Taste and flavor characteristics” value is given as “Metallic, bitter, tingle”.

As to `CC/C=C\CC/C=C/C(=O)NCC(C)O` (stereo not drawn) [N-(2-hydroxypropyl) E2,Z6-nonadienamide], the “Taste and flavor characteristics” value in assay [1] was “Cloying, fatty, cod liver oil, fishy”.

With `CCCCC/C=C\CC/C=C/C(=O)NCC(C)CC` (stereo not drawn) [N-(2-methylbutyl) E2,Z6-dodecadienamide], in assay [1], the Primary characteristic entry is on record as “Fruity”; the Secondary characteristic result was “Salt like”; the “Taste and flavor characteristics” value is on record as “Slightly fruity, tingle, salty”.

Consider `CC/C=C\CC/C=C/C(=O)NCC` [N-ethyl E2,Z6-nonadienamide], for which, in assay [1], the Primary characteristic entry was “Umami”; the Secondary characteristic result was “Enhancement”; the “Taste and flavor characteristics” value is “Umami character”. For the same compound, the “Taste effect in non-alcoholic beverage” value in assay [3] is “enhanced flavor impact, increased tartness, and an increased perception of freshness”.

`CC/C=C\CC/C=C/C(=O)NC` [N-methyl E2,Z6-nonadienamide]: in assay [1], the Primary characteristic result was “Tingle”; the Secondary characteristic entry is “Numbing”; the “Taste and flavor characteristics” value is reported as “Warming, tingle”. For the same compound, the “Taste effect in hard candy” value in assay [4] was “a greener flavor with less warmth, a slight numbing and a moderate level of tingle”.

With `CC/C=C\CC/C=C/C(=O)NC(C)C` [N-isopropyl E2,Z6-nonadienamide], in assay [1], the Primary characteristic entry is given as “Cucumber taste”; the Secondary characteristic result is on record as “Tingle”; the “Taste and flavor characteristics” value was “Oily, cucumber, some tingle, bitter”.

For `CC/C=C\CC/C=C/C(=O)NC1CC1` [N-cyclopropyl E2,Z6-nonadienamide], in assay [1], the Primary characteristic result is recorded as “Umami” and the Secondary characteristic entry is “Enhancement”.

Turning to `CC/C=C\CC/C=C/C(=O)NCc1ccc2c(c1)OCO2` [N-(3,4-methylenedioxy) benzyl E2,Z6-nonadienamide], in assay [1], the Primary characteristic result is reported as “Numbing”; the Secondary characteristic result is “Tingle”; the “Taste and flavor characteristics” value was “Numbing and tingle”. Also, in assay [5], the “Taste effect in alcoholic beverage” value is “an enhanced perception of alcohol, increased flavor impact, and a tingle effect on the tongue”.

Turning to `CC/C=C\CC/C=C/C(=O)NCC(C)C` [N-isobutyl E2,Z6-nonadienamide], the Secondary characteristic entry in assay [1] was “MSG like”.
